Experimental data published in patent publication US11370769B2, “TRPC5 inhibitors and methods of using same” (BOARD OF REGENTS OF THE UNIVERSITY OF NEBRASKA, priority 2017, dated 2022).

Tested on: Dahl S rats
Assay: Dahl salt-sensitive rat model of hypertension-induced FSGS
Type: in vivo
Description: Animals and chemicals: Littermates of wild-type (WT) and AT1R TgNeph-hAT1R/185 transgenic (AT1R Tg) rats were housed under a controlled environment with a 12-hour light-dark cycle and access to food and water ad libitum, unless otherwise described. All animal experiments were performed in accordance to the guidelines established and approved by the Animal Care and Use Committee at Brigham and Women's Hospital, Harvard Medical School (Animal Protocol No. 01538). AT1R Tg rats were placed in the Onset cohort when measured proteinuria was >5 mg/day (at approximately 12 weeks of age) on two separate 24-hour urine collections. AT1R Tg rats were placed in the Advanced cohort when measured proteinuria was >25 mg/day (at approximately 18 weeks of age) on two separate 24-hour urine collections. These thresholds were determined after detailed histologic and phenotypic characterization of AT1R Tg rats compared to WT littermates (all combined, n=91 WT rats and n=122 AT1R Tg rats were studied). The Dahl salt-sensitive (S) inbred strain is maintained at University of Mississippi Medical Center (UMMC) and was originally obtained from University of Toledo-College of Medicine (SS/Jr). All animal experiments performed at UMMC were in accordance to the guidelines established and approved by the Institutional Animal Care and Use Committee. Animals used for this studied were provided either low-salt diet [TD7034, 0.3% NaCl and/or high-salt diet [TD94217, 2.0% NaCl] from Harlan Teklad, Madison, Wis. For onset study, at 4 weeks of age, groups of age-matched male S were weaned to the low-salt diet and divided into two groups: vehicle (n=8) and AC1903 groups (n=8). At 6 weeks of age, both groups were placed on the high-salt diet and concurrently treated with either vehicle or AC1903 for 1-week (Onset). For Advanced study, similarly at 4 weeks of age, groups of age-matched male S were weaned to the low-salt diet and divided into two groups: vehicle (n=9) and AC1903 groups (n=11). At 6 weeks of age, both groups were placed on the high-salt diet. At week 7, concurrent with high-salt diet, animals were treated with either vehicle or AC1903 for 1-week (Advanced). At the conclusion of each study, animals were initially anesthetized under 2-3% isoflurane/O2 gas, a catheter attached to a fluid filled pressure transducer was placed in the aorta, isoflurane gas was reduced to 1.5%, and mean arterial pressure was measured for ˜5 min period using PowerLab 4/30 system (ADI Instruments, Co) as done previously. All chemicals were purchased from Sigma-Aldrich unless otherwise described.
Chemical preparation and IP administration: ML204 and AC1903 were prepared from powder in a single batch for each in vivo experiment to avoid variability. Immediately prior to injections, ML204 or AC1903 solution was placed on a heated shaker at 48° C. and 800 RPM. Vehicle was prepared in the same fashion. Injection volume was determined by body weight (2 mL vehicle/compound per kg body weight). Body weight was measured at the time of injection.
Urine collection and assay: For urine collections, rats were housed individually in a metabolic cage supplied with food and water. Urine was collected into a 50 mL falcon tube for 24 hours. Total urine volume was measured and then centrifuged at 3,200 rcf for 10 min at 4° C. Albumin quantification was done according to previously published protocol (11), involving multiple dilutions of urine from each animal compared to Bovine Serum Albumin (BSA) standards. Coumassie Blue stained gels were quantified by densitometry using ImageJ software. As an additional control, the rat ELISA Albumin kit (Exocell) was used for albumin quantification according to the manufacturer's recommendations and yielded the same results. Urine protein was measured using QuanTtest® Red Total Protein Assay System (Quantimetrix, Redondo Beach, Calif.) and expressed as mg protein/24 hours. […]

c1ccc(Cn2c(NCc3ccco3)nc3ccccc32)cc1 [AC1903]
numbers of podocytes per glomerulus (AC1903 treated Dahl S rats, stated similar to WT and AC1903-treated AT1R Tg rats): approximately 120 podocytes/glom | BUN (AC1903 treatment): no effect | body weight (AC1903 treatment): no effect | creatinine (AC1903 treatment): no effect | mean arterial pressure (MAP) (AC1903 treatment): did not affect | numbers of podocytes per glomerulus compared to vehicle-treated controls (Advanced, AC1903 50 mg/kg): higher | proteinuria (Advanced: 50 mg/kg, treatment day 7 to day 14 of 2% NaCl): significant suppression of proteinuria | rate of progressive proteinuria (Onset: 50 mg/kg twice daily i.p. from start of 2% NaCl diet, 1 week): significantly reduced
